Data published in patent publication US9266900B2, “Additives for improved isohexide products” (ARCHER DANIELS MIDLAND COMPANY, priority 2012, dated 2016).
Values joined by “and” are separate entries in the source; they are usually repeats but may differ in a detail not shown here. Equal values may be shown once.

What was measured:
[1] = Heating of isosorbide distillate in 200° C. oil bath for 1 hr under air, APHA color by UV/vis; format: physicochemical; conditions: 0.5 g diluted with 2 mL water
Method: About, an 11 gram sample of the isosorbide distillate was added to a glass tube and capped with a septum. The glass tube was then submerged in a 200° C. oil bath for 1 hr under air. Approximately 0.5 g of the heated distillate sample was subsequently diluted with 2 mL of water and analyzed by UV/vis to obtain an APHA color value. An APHA color of approximately 250 was observed, compared to an APHA value for a distillate sample absent the DTMP additive that was offscale (>500).
About an 11 gram sample of the isosorbide distillate was added to a glass tube and capped with a septum. The glass tube was then submerged in a 200° C. oil bath for 1 hr under air.

[2] = Distillation of crude isosorbide mixture with added antioxidant: co-distillation and initial distillate color; format: physicochemical; conditions: for initial APHA color of the neat distillate: neat distillate after distillation, ASTM D1209; for additive distilled with the isosorbide / recovered in the distillate by UPLC analysis: short path distillation, oil bath 185 to 195 degrees Celsius, less than 2 torr; for antioxidant recovered in the distillate, yield: co-distilled with isosorbide
Method: A 500 mL boiling flask equipped with a Teflon stir bar was charged with 100 g of ion-exchanged (strong acid cation/strong base anion-exchanged), dewatered, molten isosorbide. While stirring, 40.02 mg of 2,6-di-tert-butyl-4-methoxyphenol (DTMP), previously dissolved in 2 mL of absolute ethanol, was added via pipette, indicating the DTMP concentration as 400 ppm in the matrix. The flask was then outfitted with a still head, condenser, and receiver, placed under a vacuum of <2 torr, and placed in a digitally controlled oil bath. The bath was gradually heated to 190 degrees Celsius while maintaining a vacuum. At a bath temperature of approximately 155 degrees, isosorbide began to distill (vapor temperature of 150 deg C.). Continuous distillation occurred for approximately 30 minutes. 45.6 grams of clear, colorless isosorbide was collected, whose APHA color was measured as 6. Quantitative analysis by UPLC determined the concentration of DTMP in the distilled isosorbide to be 503 ppm.
In this as in subsequent examples, a quantity of an antioxidant under evaluation was dissolved in 1-2 mL of absolute ethanol and then added via pipette to a crude isosorbide mixture which had been treated previously to remove ionic species therefrom. Amounts were set so that the concentration of the antioxidant in the crude isosorbide mixture was in the range of from 250 to 900 ppm by weight. The stabilized crude isosorbide mixtures were then distilled in turn in a short path, jacketed distillation apparatus consisting of a 250 cc 3 neck boiling flask containing a PTFE magnetic stir bar in which one neck was fitted with a rubber septum, a thermocouple extended into the mixture being distilled from a central neck, and the third neck was equipped with the short path head leading to a boiling flask receiver maintained at 80 degrees Celsius. The boiling flask was immersed in an oil bath maintained at from 185 to 195 degrees Celsius, and distillation occurred under a vacuum pressure of less than 2 torr.

[3] = Thermal aging of 85% solution of the distillate in water at 85 deg C. up to 28 days; format: physicochemical; conditions: for formic acid concentration, final sample / furfural concentration, final sample / APHA color, day 28 / formic acid concentration, initially / furfural concentration, initially / APHA color, time zero: 85% solution; for formic acid concentration, final sample / furfural concentration, final sample / APHA color, day 28: 85 deg C.; for formic acid concentration, final sample / furfural concentration, final sample: 28 days; for APHA color, day 28: day 28, final diluted (20%); for formic acid concentration, initially / furfural concentration, initially: initial; for APHA color, time zero: diluted (20%)
[4] = Thermal aging of neat distillate in 85 deg C. oven under air up to 28 days; format: physicochemical; conditions: for formic acid after 28 days / furfural after 28 days / APHA color after 28 days: 85 deg C.; for APHA color after 28 days: air, measured as a 20% solution; for APHA color, time zero: UV/vis; for color stability criteria after accelerated aging: 85 degrees Celsius, 4 weeks, APHA less than 200 neat distillate and less than 250 for 85% solution
Method: The DTMP-stabilized distillate was further tested for color storage stability by thermal aging over a more extended period of time, in particular, by preparing typically five 10 mL headspace vials of each of the neat distillate and an 85% solution of the distillate in water in 0.5 gram sample portions. One vial of the set of five for the neat distillate or the 85% solution was set aside as the “time zero” data point. The time zero sample was diluted with 2 mL of water and analyzed.
For the neat distillate, the APHA color of the time zero sample was less than 20 by UV/vis. All other decomposition products were less than 5 ppm. The four other vials of the neat distillate were then placed in an 85 deg C. oven trader air, and one vial was removed at 7 days, another at 14 days, another at 21 days, and the last of the four at 28 days. Once removed from the oven, each sample was allowed to cool to room temperature and diluted with 2 mL of water. The sample was then analyzed by UV/vis, UPLC, LC-MS, and GC. After 28 days, APHA color, measured as a 20% solution, was only 28. Furfural and formic acid were measured at 18 ppm and 39 ppm, respectively.
The BBTC-stabilized distillate was further tested for color storage stability by thermal aging over a more extended period of time, in particular, by preparing typically five 10 mL headspace vials of each of the neat distillate and an 85% solution of the distillate in water in 0.5 gram sample portions. One vial of the set of five for the neat distillate or the 85% solution was set aside as the “time zero” data point. The time zero sample was diluted with 2 mL of water and analyzed.
For the neat distillate, the APHA color of the time zero sample was less than 1 by UV/vis. Formic acid concentration in the time zero sample was less than 5 ppm, while furfural concentration was less than 1 ppm. The four other vials of the neat distillate were then placed in an 85 deg C. oven under air, and one vial was removed at 7 days, another at 14 days, another at 21 days, and the last of the four at 28 days. Once removed from the oven, each sample was allowed to cool to room temperature and diluted with 2 mL of water. Each sample was then analyzed by UV/vis, UPLC, LC-MS, and GC. After 28 days, APHA color, measured as a 20% solution, was 191. Furfural and formic acid were measured at 298 ppm and 6,102 ppm, respectively.

[5] = Solubility and retention of stabilizer in isosorbide product; conditions: 85% solution isosorbide product
[6] = stable = formic acid less than 5 ppm and monoanhydrohexoses less than 50 ppm, dry weight basis; cited from earlier work
[7] = Isosorbide (100% molten) mixed with additives, heated 1-2 hours at 200 degrees Celsius, accelerated aging tests; conditions: additive screening

initial APHA color of the neat distillate [2]	additive distilled with the isosorbide / recovered in the distillate by UPLC analysis [2]	formic acid concentration, final sample [3] [ppm]	APHA color, day 28 [3]	formic acid concentration, initially [3]	APHA color, time zero [3]	formic acid after 28 days ([4]; neat distillate)	APHA color after 28 days ([4]; neat distillate)	formic acid concentration, time zero ([4]; neat distillate, time zero)	APHA color, time zero ([4]; neat distillate, time zero)	SMILES	stability of composition according to the '477 patent [6]	also measured
10	About 83%	4264	more than 500	less than 5 ppm	less than 1	6,102 ppm	191	less than 5 ppm	less than 1	CCCC(c1cc(C(C)(C)C)c(O)cc1C)c1cc(C(C)(C)C)c(O)cc1C [BBTC, 4,4′-butylidenebis(6-t-butyl-m-cresol)]	–	APHA color after heating [1]: offscale; furfural concentration, final sample [3]: 298 ppm; furfural concentration, initially [3]: less than 1 ppm; furfural after 28 days ([4]; neat distillate): 298 ppm; furfural concentration, time zero ([4]; neat distillate, time zero): less than 1 ppm
–	–	–	–	–	–	–	–	–	–	Cc1cc(C(C)(C)C)c(O)c(C(C)(C)C)c1 [BHT]	stable	–
13	About 84%	63	50	less than 5 ppm	5	74 ppm	17	less than 5 ppm	less than 15	COc1cc(C)cc(OC)c1O [DMMP, 2,6-dimethoxy-4-methylphenol]	–	APHA color after heating [1]: 205; antioxidant recovered in the distillate, yield [2]: 84%; solubility in 85% solution product [5]: continued good solubility; color stability criteria after accelerated aging [4]: criteria were met
18.7	–	–	–	–	–	–	–	–	–	COc1cccc(OC)c1O [DMP, 2,6-dimethoxyphenol]	–	antioxidant recovered in the distillate, yield [2]: 64%; color stability criteria after accelerated aging [4]: met the criterion for either the neat distillate or the 85% solution product hut not for both
–	–	250	150	–	0	39 ppm	28	–	less than 20	COc1cc(C(C)(C)C)c(O)c(C(C)(C)C)c1 [DTMP, 2,6-di-tert-butyl-4-methoxyphenol]	–	APHA color after heating [1]: approximately 250; concentration of additive in the distilled isosorbide by UPLC ([2]; 400 ppm in the matrix before distillation): 503 ppm; antioxidant recovered in the distillate, yield [2]: 50%; furfural concentration, final sample [3]: 88 ppm; furfural concentration, initially [3]: less than 5 ppm; 5-hydroxymethylfurfural (HMF) formation ([3]; 85% stabilized sample, aged): < 5 ppm; color stability criteria after accelerated aging [4]: met the criterion for either the neat distillate or the 85% solution product hut not for both; furfural after 28 days ([4]; neat distillate): 18 ppm; all other decomposition products, time zero ([4]; neat distillate, time zero): less than 5 ppm; 5-hydroxymethylfurfural (HMF) formation ([4]; neat stabilized sample, aged): < 5 ppm
–	–	–	–	–	–	–	–	–	–	O=P([O-])([O-])O.[Na+].[Na+] [Na2HPO4]	stable	–
–	–	–	–	–	–	–	–	–	–	O=B[O-].[Na+] [NaBO2]	stable	–
–	–	–	–	–	–	–	–	–	–	[Na+].[OH-] [NaOH]	stable	–
–	Virtually a quantitative recovery	770	more than 500	less than 5 ppm	less than 1	3458 ppm	233	less than 5 ppm	110	CC(C)(C)c1cc(O)ccc1O [TBHQ, tert-butylhydroquinone]	–	furfural concentration, final sample [3]: 257 ppm; furfural concentration, initially [3]: less than 1 ppm; furfural after 28 days ([4]; neat distillate): 182 ppm; furfural concentration, time zero ([4]; neat distillate, time zero): less than 1 ppm
15	About 26%	3360	more than 500	less than 5 ppm	5	3291 ppm	over 500	less than 5 ppm	15	Cc1c(C)c2c(c(C)c1O)CCC(C)(C(=O)O)O2 (stereo not shown) [Trolox™, 6-hydroxy-2,5,7,8-tetramethylchromane-2-carboxylic acid]	–	furfural concentration, final sample [3]: 512 ppm; furfural concentration, initially [3]: less than 1 ppm; furfural after 28 days ([4]; neat distillate): 460 ppm; furfural concentration, time zero ([4]; neat distillate, time zero): less than 1 ppm; rate of color formation compared to control vials containing distillate alone ([4]; thermal aging, stabilized samples vs control): developed color more quickly
–	–	–	–	–	–	–	–	–	–	C1OC1COC1COC2C(OCC3CO3)COC12 (stereo not shown) [isosorbide diglycidol ether]	–	effect on color stability of isosorbide [7]: ineffective in the absence of an antioxidant
–	–	–	–	–	–	–	–	–	–	C1COCCN1 [morpholine]	stable	–
–	–	–	–	–	–	–	–	–	–	O=C1O[C@H]([C@@H](O)CO)C(O)=C1O [vitamin C]	stable	–

SMILES	initial APHA color of the neat distillate [2]	additive distilled with the isosorbide / recovered in the distillate by UPLC analysis [2]	formic acid concentration, final sample [3] [ppm]	APHA color, day 28 [3]	formic acid concentration, initially [3]	APHA color, time zero [3]	formic acid after 28 days ([4]; neat distillate)	APHA color after 28 days ([4]; neat distillate)	formic acid concentration, time zero ([4]; neat distillate, time zero)	APHA color, time zero ([4]; neat distillate, time zero)	stability of composition according to the '477 patent [6]	also measured
COc1ccc(O)c(C(C)(C)C)c1 [BHA, butylated hydroxyanisole]	14.1 and 14	About 63%	44	30	less than 5 ppm	less than 1	21 ppm	40	less than 5 ppm	less than 15	–	APHA color after heating [1]: 222; antioxidant recovered in the distillate, yield [2]: 63%; solubility in 85% solution product [5]: continued good solubility; color stability criteria after accelerated aging [4]: criteria were met
